Test results published in US7611721B1, “Adjuvant combination formulations” (priority 2000, dated 2009).
“And” between values parts separate entries of the source, which are not always exact repeats. Equal entries are not always repeated. Where two headings read alike, the source gives them in different places.

Key:
[1] = test system: Neisseria gonorrhoeae Porin B protein; experiment: Reciprocal anti-Porin B protein serum IgG endpoint subclass titers; type: in vivo, Swiss-Webster mice; conditions: for Reciprocal anti-Porin B Protein IgG1 endpoint titer, Week 3 / Reciprocal anti-Porin B Protein IgG1 endpoint titer, Week 6 / Reciprocal anti-Porin B Protein IgG2a endpoint titer, Week 3 / Reciprocal anti-Porin B Protein IgG2a endpoint titer, Week 6 / Reciprocal anti-Porin B Protein IgG endpoint titer, Week 3 / Reciprocal anti-Porin B Protein IgG endpoint titer, Week 6: 1 μg Porin B s.c. week 0 and 4
Description: (§1) Outbred Swiss-Webster mice were divided into five groups of ten mice each. Each group received 1 μg of recombinant Porin B protein (from strain FA1090 with 16 amino acids at the amino-terminus from a phage, followed by the mature form of the Porin B protein). […] Mice were immunized subcutaneously in the rump with a total volume of 0.2 ml, divided equally into each of two sites at the base of the tail/rump. Immunizations were administered at week 0 and week 4.
Mice were bled the day prior to each immunization, and at 13 days after the final immunization. Serum was analyzed from pools from mice within groups. […] All day 0 pre-immunization titers were less than 50.
Individual week 6 IgG titer geometric means against the recombinant Porin B protein were also determined.
as §1, with “six” for “five”, “five” for “ten”, “ml.” for “ml, divided equally into each of two sites at the base of the tail/rump.”
(§2) Mice were bled the day prior to each immunization, and at 13 days after the final immunization. Serum was analyzed from pools from mice within groups. […] All day 0 pre-immunization titers were less than 50. The starting dilution for vaginal lavage analysis was 1/5.

spleen cells = experiment: Spleen cell proliferation in response to RSV F protein; type: cell-based, Balb/c mice; conditions: Experiment 12; spleen cells 14 days post-secondary immunization; 2.5 μg/ml RSV F protein, 96 hours; normalized to ConA
Description: Spleen cells were harvested at 14 days post-secondary immunization and were established in culture at a density of 5×10^5 cells. Cells were cultured for a total of 96 hours. ^3H-thymidine was added to cultures for the last 18 hours. Data are presented as a proliferation index normalized to cells stimulated in culture with ConA ([mean cpm Antigen/mean cpm ConA]−[mean cpm medium/mean cpm ConA])×100. As a result, cells cultured in medium have a background proliferation of 0.

RSV F protein = conditions: pooled serum n=5 Balb/c
T1SP10MN(A) (−Cys) = test system: T1SP10MN(A) (−Cys)
Description: Animals were bled prior to initial immunization, and at indicated time points. Serum was analyzed from individual mice, or as pools from mice within groups. Vaginal lavage was performed on euthanized mice to assess antibody levels. This was accomplished by instillation of 75:1 RPMI-10 into the vaginal vault of female mice using a 200:1 pipette. The vault was washed by repeated delivery and removal of fluid, which was then added to 10:1 of FBS. Vaginal lavage were analyzed as pools.
For analysis of HIV peptide-specific antibody and subclass distribution, peptide was suspended in either carbonate buffer (15 mM Na2CO3, 35 mM NaHCO3, pH 9.6), or PBS, at a concentration of 1 μg/ml and plated to 96 well microtiter plates (Nunc) in a volume of 100:1. After overnight incubation at 37° C., plates were washed, and blocked (0.1% gelatin/PBS) at room temperature for 2-4 hours. ELISA plates were washed with wash buffer (PBS, 0.1% Tween™20) before addition of serially diluted serum (PBS, 0.1% gelatin, 0.05% Tween™20, 0.02% sodium azide). After a four hour incubation, wells were washed and appropriate dilutions of biotinylated anti-isotype/subclass antibodies were added for incubation at 4° C. overnight. Wells were washed and incubated with strepavidin-conjugated horseradish peroxidase. After incubation, wells were washed, and developed with ABTS. Wells were read at 405 nm. Titers were standardized using control sera.
Vaginal IgG and IgA anti-peptide antibody titers were measured from lavage obtained 2 weeks after final immunization. Groups of 5 Balb/c female mice were immunized with 25 μg T1SP10MN(A) (−Cys) and the indicated adjuvant formulations on days 0, 28, and 42. Vaginal antibody titers were determined from pool d lavage fluid.
HIV peptide-specific vaginal lavage endpoint reciprocal endpoint IgG and IgA antibody titers were measured from pooled serum (n=5 Balb/c) 15 days after secondary immunization. […] Aqueous MPL™ was delivered at 50 μg per dose. Recombinant murine IL-12 was delivered at 40 ng/mouse. Recombinant murine GM-CSF was delivered at 10 μg/mouse.
Vaginal IgG and IgA anti-peptide antibody titers were measured from lavage 41 days after initial immunization, 13 days after secondary immunization.

[2] = test system: Neisseria gonorrhoeae Porin B protein; experiment: Vaginal wash anti-Porin B protein IgG and IgA titers; type: in vivo, Swiss-Webster mice; conditions: Experiment 11; Swiss-Webster; starting dilution 1/5
Description: as §1, with “six” for “five”, “five” for “ten”, “ml.” for “ml, divided equally into each of two sites at the base of the tail/rump.”
as §2

T1SP10MN(A) (+Cys) = experiment: Reciprocal anti-T1SP10MN(A) (+Cys) serum IgG and subclass endpoint titers, Balb/c mice; type: in vivo; conditions: n=3 Balb/c
Text: The protocols of Experiment 2 were followed, except that the HIV peptide contained a cysteine at amino acid position 17, and the mice (n=3 Balb/c) were immunized subcutaneously on days 0 and 21, and bled for serological evaluation on days −1 (the day before first immunization), 13, 20 and 28. […] The HIV peptide T1SP10MN(A) (+Cys) (26) contains a cysteine at amino acid position 17 and is 40 residues long. T1SP10MN(A) (+Cys) was purchased from Genosys Biotechnologies (The Woodlands, Tex.).
Reciprocal anti-T1SP10MN(A) IgG endpoint titers were measured from individual mice and their geometric means (n=3 Balb/c) 28 days after initial immunization.
The protocols of Experiment 6 were followed, except that mice (n=3 Balb/c) were immunized subcutaneously on days 0 and 32, and bled for serological evaluation on day 38.
Reciprocal anti-T1SP10MN(A) (+Cys) IgG endpoint titers were measured from individual mice and their geometric means (n=3 Balb/c) 38 days after initial immunization.

[3] = Experiment 10, pooled serum n=10 Swiss-Webster
[4] = Experiment 11, pooled serum n=5 Swiss-Webster
[5] = Experiment 12, 3 μg F protein i.m. week 0 and 4
[6] = Experiment 13, F protein week 0 and 4
[7] = Experiment 14, 3 μg F protein s.c. week 0 and 4
[8] = Experiment 2, pooled, n=5 Balb/c, 15 days after secondary immunization
[9] = Experiment 4, Balb/c, day 41, 13 days after secondary immunization
[10] = Experiment 6, immunized days 0 and 21, day 28
[11] = Experiment 7, immunized days 0 and 32, day 38

Sequence of RSV F protein (P03420 137-574): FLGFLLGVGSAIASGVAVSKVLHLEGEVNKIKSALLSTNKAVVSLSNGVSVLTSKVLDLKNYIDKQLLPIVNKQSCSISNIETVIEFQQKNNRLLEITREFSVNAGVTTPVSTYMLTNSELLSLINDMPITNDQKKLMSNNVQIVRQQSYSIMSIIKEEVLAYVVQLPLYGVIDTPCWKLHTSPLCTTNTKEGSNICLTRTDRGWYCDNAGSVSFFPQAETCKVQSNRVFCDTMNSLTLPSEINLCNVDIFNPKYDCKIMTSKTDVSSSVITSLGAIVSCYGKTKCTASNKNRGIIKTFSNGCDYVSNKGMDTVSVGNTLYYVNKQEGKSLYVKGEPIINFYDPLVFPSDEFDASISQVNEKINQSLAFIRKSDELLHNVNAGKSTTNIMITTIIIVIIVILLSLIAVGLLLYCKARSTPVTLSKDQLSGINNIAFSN

**Q.** For “3-O-deacylated monophosphoryl lipid A [MPL ™]”, which “Reciprocal anti-Porin B Protein IgG1 endpoint titer, Week 3” value [1, 3] is on record?
**A.** 171

**Q.** And the “Reciprocal anti-Porin B Protein IgG1 endpoint titer, Week 6” value [1, 3]?
**A.** 23,465

**Q.** What about the “Reciprocal anti-Porin B Protein IgG2a endpoint titer, Week 3” value [1, 3] of the same substance?
**A.** 318

**Q.** And the “Reciprocal anti-Porin B Protein IgG2a endpoint titer, Week 6” value [1, 3]?
**A.** 20,422

**Q.** What about the “Reciprocal anti-Porin B Protein IgG endpoint titer, Week 3” value [1, 3] of the same substance?
**A.** 3,381

**Q.** What about the “Reciprocal anti-Porin B Protein IgG endpoint titer, Week 6” value [1, 3] of the same substance?
**A.** 431,529

**Q.** And the “Individual IgG titers against recombinant Porin B protein, Geometric Mean” value ([1]; Experiment 10, week 6, Swiss-Webster)?
**A.** 217,114

**Q.** What about the “Reciprocal anti-Porin B Protein IgG1 endpoint titer, Week 3” value [1, 4] of the same substance?
**A.** 500

**Q.** What about the “Reciprocal anti-Porin B Protein IgG1 endpoint titer, Week 6” value [1, 4] of the same substance?
**A.** 76,640

**Q.** And the “Reciprocal anti-Porin B Protein IgG2a endpoint titer, Week 3” value [1, 4]?
**A.** 1,925

**Q.** What about the “Reciprocal anti-Porin B Protein IgG2a endpoint titer, Week 6” value [1, 4] of the same substance?
**A.** 60,910

**Q.** And the “Reciprocal anti-Porin B Protein IgG endpoint titer, Week 3” value [1, 4]?
**A.** 5,656

**Q.** What about the “Reciprocal anti-Porin B Protein IgG endpoint titer, Week 6” value [1, 4] of the same substance?
**A.** 265,127

**Q.** And the “Normalized Proliferation Index” value (spleen cells)?
**A.** 0.4

**Q.** And the “Reciprocal anti-RSV F Protein IgG1 endpoint titer, Week 3” value (RSV F protein; [5])?
**A.** 28,134

**Q.** What about the “Reciprocal anti-RSV F Protein IgG1 endpoint titer, Week 6” value (RSV F protein; [5]) of the same substance?
**A.** 900,863

**Q.** And the “Reciprocal anti-RSV F Protein IgG2a endpoint titer, Week 3” value (RSV F protein; [5])?
**A.** 11,882

**Q.** What about the “Reciprocal anti-RSV F Protein IgG2a endpoint titer, Week 6” value (RSV F protein; [5]) of the same substance?
**A.** 1,057,108

**Q.** And the “Reciprocal anti-RSV F Protein IgG endpoint titer, Week 3” value (RSV F protein; [5])?
**A.** 124,197

**Q.** What about the “Reciprocal anti-RSV F Protein IgG endpoint titer, Week 6” value (RSV F protein; [5]) of the same substance?
**A.** 3,310,838

**Q.** And the “Reciprocal anti-RSV F Protein IgG1 endpoint titer, Week 3” value (RSV F protein; [6])?
**A.** 21,930

**Q.** What about the “Reciprocal anti-RSV F Protein IgG1 endpoint titer, Week 6” value (RSV F protein; [6]) of the same substance?
**A.** 1,384,927

**Q.** What about the “Reciprocal anti-RSV F Protein IgG2a endpoint titer, Week 3” value (RSV F protein; [6]) of the same substance?
**A.** 61,253

**Q.** What about the “Reciprocal anti-RSV F Protein IgG2a endpoint titer, Week 6” value (RSV F protein; [6]) of the same substance?
**A.** 955,685

**Q.** What about the “Reciprocal anti-RSV F Protein IgG endpoint titer, Week 3” value (RSV F protein; [6]) of the same substance?
**A.** 104,702

**Q.** What about the “Reciprocal anti-RSV F Protein IgG endpoint titer, Week 6” value (RSV F protein; [6]) of the same substance?
**A.** 6,153,833

**Q.** What about the “Reciprocal anti-RSV F Protein IgG1 endpoint titer, Week 3” value (RSV F protein; [7]) of the same substance?
**A.** 55,767

**Q.** And the “Reciprocal anti-RSV F Protein IgG1 endpoint titer, Week 6” value (RSV F protein; [7])?
**A.** 402,128

**Q.** What about the “Reciprocal anti-RSV F Protein IgG2a endpoint titer, Week 3” value (RSV F protein; [7]) of the same substance?
**A.** 8,397

**Q.** And the “Reciprocal anti-RSV F Protein IgG2a endpoint titer, Week 6” value (RSV F protein; [7])?
**A.** 170,252

**Q.** What about the “Reciprocal anti-RSV F Protein IgG endpoint titer, Week 3” value (RSV F protein; [7]) of the same substance?
**A.** 26,179

**Q.** And the “Reciprocal anti-RSV F Protein IgG endpoint titer, Week 6” value (RSV F protein; [7])?
**A.** 3,467,097

**Q.** And the “Vaginal lavage reciprocal anti-T1SP10MN(A) (−Cys) IgA endpoint titer” value (T1SP10MN(A) (−Cys); [8])?
**A.** <10

**Q.** And the “Vaginal lavage reciprocal anti-T1SP10MN(A) (−Cys) IgG endpoint titer” value (T1SP10MN(A) (−Cys); [8])?
**A.** <10

**Q.** What about the “Vaginal lavage IgA anti-T1SP10MN(A) (−Cys) antibody titer” value (T1SP10MN(A) (−Cys); [9]) of the same substance?
**A.** <10

**Q.** And the “Vaginal lavage IgG anti-T1SP10MN(A) (−Cys) antibody titer” value (T1SP10MN(A) (−Cys); [9])?
**A.** 12

**Q.** What about the “Vaginal Wash IgA titer, anti-Porin B Protein” value [2] of the same substance?
**A.** 5

**Q.** And the “Vaginal Wash IgG titer, anti-Porin B Protein” value [2]?
**A.** 54

**Q.** What about the “Anti-HIV Peptide (+Cys) IgG1 GMT” value (T1SP10MN(A) (+Cys); [10]) of the same substance?
**A.** 84,978

**Q.** What about the “Anti-HIV Peptide (+Cys) IgG1 endpoint titer, individual mice” value (T1SP10MN(A) (+Cys); [10]) of the same substance?
**A.** 23,249 and 155,199 and 170,071

**Q.** What about the “Anti-HIV Peptide (+Cys) IgG2a GMT” value (T1SP10MN(A) (+Cys); [10]) of the same substance?
**A.** 2,859

**Q.** What about the “Anti-HIV Peptide (+Cys) IgG2a endpoint titer, individual mice” value (T1SP10MN(A) (+Cys); [10]) of the same substance?
**A.** 500 and 1,628 and 28,722

**Q.** What about the “Anti-HIV Peptide (+Cys) IgG2b GMT” value (T1SP10MN(A) (+Cys); [10]) of the same substance?
**A.** 2,906

**Q.** What about the “Anti-HIV Peptide (+Cys) IgG2b endpoint titer, individual mice” value (T1SP10MN(A) (+Cys); [10]) of the same substance?
**A.** 500 and 1,102 and 44,531

**Q.** And the “Anti-HIV Peptide (+Cys) IgG GMT” value (T1SP10MN(A) (+Cys); [10])?
**A.** 350,486

**Q.** And the “Anti-HIV Peptide (+Cys) IgG endpoint titer, individual mice” value (T1SP10MN(A) (+Cys); [10])?
**A.** 91,728 and 529,663 and 886,156

**Q.** And the “Anti-HIV Peptide (+Cys) IgG1 GMT” value (T1SP10MN(A) (+Cys); [11])?
**A.** 115,544

**Q.** And the “Anti-HIV Peptide (+Cys) IgG1 endpoint titer, individual mice” value (T1SP10MN(A) (+Cys); [11])?
**A.** 148,818 and 90,380 and 114,686

**Q.** What about the “Anti-HIV Peptide (+Cys) IgG2a GMT” value (T1SP10MN(A) (+Cys); [11]) of the same substance?
**A.** 3,429

**Q.** What about the “Anti-HIV Peptide (+Cys) IgG2a endpoint titer, individual mice” value (T1SP10MN(A) (+Cys); [11]) of the same substance?
**A.** 11,874 and 1,674 and 2,028

**Q.** And the “Anti-HIV Peptide (+Cys) IgG2b GMT” value (T1SP10MN(A) (+Cys); [11])?
**A.** 4,980

**Q.** What about the “Anti-HIV Peptide (+Cys) IgG2b endpoint titer, individual mice” value (T1SP10MN(A) (+Cys); [11]) of the same substance?
**A.** 9,685 and 3,605 and 3,538

**Q.** And the “Anti-HIV Peptide (+Cys) IgG GMT” value (T1SP10MN(A) (+Cys); [11])?
**A.** 442,259

**Q.** And the “Anti-HIV Peptide (+Cys) IgG endpoint titer, individual mice” value (T1SP10MN(A) (+Cys); [11])?
**A.** 404,755 and 446,952 and 478,163
